Reference: PMC7456637, “Pharmacokinetic characterization of fluorocoxib D, a cyclooxygenase-2-targeted optical imaging agent for detection of cancer” (Journal of Biomedical Optics, 2020)
Where “and” joins values, the source holds several entries; their conditions need not be identical. Equal values may be shown once.

What was measured:
COX2 = conditions: cited from earlier work
[1] = system: COX-2-expressing human 5637 cancer cells; test: Fluorocoxib D uptake by human 5637 cancer cells (fluorescence microscopy); assay type: cell-based; conditions: 50 nM, 30 min, COX-2-positive 5637 cells
Procedure: Human 5637 cells were seeded on four-chamber slides (Nalge Nunc, Rochester, New York) and grown until reached 70% to 80% confluence. […] The nuclei of cells were stained with DAPI for 10 min, and slides were mounted using an aqueous mounting medium. Images of cells were captured by a Leica DMi8 fluorescent microscope with Hamamatsu Orca Flash 4.0LT Digital CMOS Camera (Leica Microsystems Inc., Chicago, Illinois) using Leica Application Suite X software (LASX, Leica).

[2] = Pilot safety study: complete blood count (CBC); assay type: in vivo, dog
Procedure: (§1) The animal studies were performed in the accordance with the University of Tennessee Institutional Animal Care and Use Committee (UT IACUC)-approved protocols and in an accordance with NIH guidelines. Individually housed research healthy female beagle dogs (Covance Research Product) with weights of 6.7 to 10.3 kg were used to assess the safety and pharmacokinetic parameters of fluorocoxib D administrated a dose of 1 mg/kg over 20 min intravenously (i.v.).
(§2) For single dose safety evaluation studies, we administrated fluorocoxib D at 1 mg/kg , i.v. using a preplaced cephalic or saphenous vein catheter over 20 min to six healthy research dogs following protocol as described previously.[38] Briefly, physical examinations for signs of potential drug toxicity were performed before, during, and daily for 3 days after fluorocoxib D administration. Physical assessment included auscultation of heart and lungs, abdominal palpation, body temperature, appetite, attitude, activity levels monitoring, and other health-related events. Hypersensitivity was evaluated by direct observation of each dog during treatment for clinical signs of an allergic reaction (facial swelling, flushing, urticaria, dyspnea, scratching, and changes of heart rates). […] Laboratory evaluations of blood and urine were carried out before and 3 days after fluorocoxib D administration to monitor signs of toxicity. Blood (up to 3 ml) was collected into ethylenediaminetetraacetic acid (EDTA) and heparin-treated tubes, and urine (up to 5 ml) was collected by cystocentesis or from the floor of the runs. The laboratory evaluation consisted of a complete blood count (CBC), serum chemistry profile, and complete urinalysis. The CBC evaluated total white blood cells (WBC) and hematocrit (HCT), in addition to absolute numbers of neutrophils, lymphocytes, monocytes, eosinophils, and platelets. The plasma chemistry profile evaluated blood urea nitrogen (BUN), creatinine, proteins (albumin, globulins, and total proteins), alanine aminotransferase (ALT), total bilirubin, glucose, and electrolytes. The complete urinalysis evaluated urine proteins, glucose, and ketones; a sediment examination and urine-specific gravity were validated as well for any possible signs of renal toxicity of fluorocoxib D. All laboratory tests were carried out at the Veterinary Medical Center of the University of Tennessee in Knoxville.

[3] = set-up: method as in earlier work; conditions: cited from earlier work
[4] = Pilot safety study: serum chemistry profile; assay type: in vivo, dog; conditions: 3 days after single dose 1 mg/kg i.v.
Procedure: as §1, §2

[5] = system: COX-2-expressing head and neck cancer (HNC); test: Fluorocoxib D uptake in HNC mass during rhinoscopy in a client-owned dog; assay type: in vivo; conditions: for Uptake of fluorocoxib D in HNC during rhinoscopy: 1 mg/kg i.v. over 20 min, half hour uptake, client-owned dog, chondrosarcoma
Procedure: The owners signed a consent form for enrolling their dog for our proof-of principal study. A nine-year old female-spayed Golden Retriever dog weighing 35 kg was presented for an acute onset of unilateral right-sided epistaxis of 5-day duration. Previous medical history included a grade 2 soft tissue sarcoma with a high mitotic index that was completely excised from her ventral neck ∼2 years prior with no signs of regrowth. Rhinoscopy and biopsy procedure in the dog was performed by board-certified veterinary internal specialists (SO and JS) in an accordance with a standard veterinary care and the UT IACUC-approved protocol. Fluorocoxib D was administrated i.v. 1 mg/kg over 20 min using a catheter, followed by a half hour uptake before initiation of rhinoscopy procedure. Rhinoscopy was used to obtain biopsy samples guided by uptaken fluorocoxib D in the computed tomography (CT)-identified head and neck cancer (HNC) mass. Rhinoscopy and biopsy procedures in dog were performed under general anesthesia using a 2.7-mm, 30-deg, 18-cm rigid scope (Karl Storz Veterinary Endoscopy) attached to a TRICAM PDD as described previously[38] using a custom-designed filter system for detection of fluorocoxib D ( λem 645±50 nm ). After complete recovery from the rhinoscopic examination and anesthesia in a quiet room, the client-owned dog was returned to its owners. The heat map images with adjusted hue saturation of fluorocoxib D signal (pink color) from normal tissue (upper three images) and HNC tumor (lower three images) obtained during rhinoscopy were generated using Adobe Photoshop CC2019 software ([…]) in order to better visualize the tumor and its margins. […]
The biopsy samples obtained during rhinoscopy procedures in dogs were formalin-fixed and paraffin-embedded and sectioned at 7-μm thin sections for histology and immunohistochemistry analysis for detection of COX-2 and Ki67 expression as described previously.[38] […] The tissue specimens were evaluated using a Leitz DMRB microscope. […]

COc1ccc2c(c1)c(CC(=O)NCCCCNC(=O)c1ccc(C3=c4cc5c6c(c4Oc4c3cc3c7c4CCCN7CCC3)CCC[N+]=6CCC5)cc1)c(C)n2C(=O)c1ccc(Cl)cc1 [Fluorocoxib D, N -[(rhodamin-X-yl)but-4-yl]-2-[1-(4-chlorobenzoyl)-5-methoxy-2-methyl-1H-indol-3-yl]acetamide]
IC50 (COX2): 230 nM
Ratio (COX1/COX2) (COX2; ratio of IC50 values): 17.4
Uptake of fluorocoxib D by 5637 cells [1]: Selective uptake
PLT EST (platelet estimate), After ([2]; 3 days after single dose 1 mg/kg i.v., dog #3, ADQ = adequate): ADQ
PLT CNT (platelets counts), After ([2]; 3 days after single dose 1 mg/kg i.v., dog #3, reference range 147 to 423): 241000 µL⁻¹
Abs BAN (absolute band neutrophils), After ([2]; 3 days after single dose 1 mg/kg i.v., dog #6, reference range 0 to 0.3): 0 µL⁻¹
Abs EOS (absolute eosinophils), After ([2]; 3 days after single dose 1 mg/kg i.v., individual dogs #1-#6, reference range 0 to 0.85, 1 mg/kg): 240 µL⁻¹ and 360 µL⁻¹ and 140 µL⁻¹ and 200 µL⁻¹ and 180 µL⁻¹ and 170 µL⁻¹
Abs MON (absolute monocytes), After ([2]; 3 days after single dose 1 mg/kg i.v., individual dogs #1-#6, reference range 0.165 to 0.85, 1 mg/kg): 230 µL⁻¹ and 300 µL⁻¹ and 240 µL⁻¹ and 490 µL⁻¹ and 380 µL⁻¹ and 620 µL⁻¹
Abs LYM (absolute lymphocytes), After ([2]; 3 days after single dose 1 mg/kg i.v., individual dogs #1-#6, reference range 1.1 to 4.6, 1 mg/kg): 1610 µL⁻¹ and 2050 µL⁻¹ and 2220 µL⁻¹ and 1880 µL⁻¹ and 2300 µL⁻¹
Abs SEG (absolute segmented neutrophils), After ([2]; 3 days after single dose 1 mg/kg i.v., individual dogs #1-#6, reference range 2.65 to 9.8, 1 mg/kg): 3.22 ×10^3/μl and 2.98 ×10^3/μl and 4 ×10^3/μl and 4.72 ×10^3/μl and 5.07 ×10^3/μl and 2.4 L ×10^3/μl
WBC (white blood cells), After ([2]; 3 days after single dose 1 mg/kg i.v., individual dogs #1-#6, reference range 5.1 to 14, 1 mg/kg): 5.3 ×10^3/μl (2×) and 5.7 ×10^3/μl and 6.6 ×10^3/μl and 7.3 ×10^3/μl and 7.8 ×10^3/μl
HCT (hematocrit), After ([2]; 3 days after single dose 1 mg/kg i.v., individual dogs #1-#6, reference range 41 to 60, 1 mg/kg): 45.2% and 47.2% (2×) and 45.6% and 47% and 48.1%
Neutrophil finding 3 days after administration ([2]; dog #6, remained afebrile and clinically normal, cause uncertain): mild neutropenia
Water solubility compared to fluorocoxib A [3]: improved water solubility
TOT BILI (total bilirubin), After ([4]; dogs #1, #3, #6, reference range 0.1 to 0.6): 0.1 mg/dL
CREATI (creatinine), After ([4]; individual dogs #1-#6, reference range 0.3 to 1.1, 1 mg/kg): 0.8 mg/dL (3×) and 0.6 mg/dL (3×)
MAG (magnesium), After ([4]; individual dogs #1-#6, reference range 0.65 to 0.98, 1 mg/kg): 0.7 mmol/L (4×) and 0.8 mmol/L (2×)
GLOB (globulin), After ([4]; individual dogs #1-#6, reference range 1.9 to 3.1, 1 mg/kg): 2.3 g/dL (2×) and 2 g/dL (2×) and 2.6 g/dL and 2.1 g/dL
PHOS (phosphorus), After ([4]; individual dogs #1-#6, reference range 2.5 to 5.9, 1 mg/kg): 3.5 mg/dL and 4.3 mg/dL and 3.3 mg/dL and 3.9 mg/dL and 3.4 mg/dL and 3.6 mg/dL
POTAS (potassium), After ([4]; individual dogs #1-#6, reference range 2.8 to 4.7, 1 mg/kg): 3.9 mEq/L and 4.2 mEq/L and 3.7 mEq/L (2×) and 3.5 mEq/L and 3.8 mEq/L
ALBUM (albumin), After ([4]; individual dogs #1-#6, reference range 3.2 to 4.3, 1 mg/kg): 3.1 L g/dL and 3.4 g/dL (2×) and 3 L g/dL and 3.5 g/dL and 3.3 g/dL
TOT. PROT (total proteins), After ([4]; individual dogs #1-#6, reference range 5.4 to 6.8, 1 mg/kg): 5.4 g/dL (2×) and 5.7 g/dL and 5.6 g/dL (2×) and 5.2 L g/dL
BUN (blood urea nitrogen), After ([4]; individual dogs #1-#6, reference range 7 to 37, 1 mg/kg): 12 mg/dL and 17 mg/dL (2×) and 14 mg/dL and 16 mg/dL and 19 mg/dL
CAL (calcium), After ([4]; individual dogs #1-#6, reference range 10 to 12, 1 mg/kg): 9.5 L mg/dL and 10 mg/dL and 9.9 L mg/dL and 9.7 L mg/dL and 10.3 mg/dL and 9.4 L mg/dL
ALT (alanine aminotransferase), After ([4]; individual dogs #1-#6, reference range 18 to 100, 1 mg/kg): 26 U/L (2×) and 23 U/L and 22 U/L (2×) and 25 U/L
GLUCO (glucose), After ([4]; individual dogs #1-#6, reference range 82 to 132, 1 mg/kg): 94 mg/dL and 103 mg/dL and 100 mg/dL and 91 mg/dL and 105 mg/dL and 110 mg/dL
CHLOR (chlorine), After ([4]; individual dogs #1-#6, reference range 112 to 119, 1 mg/kg): 111 L mEq/L and 114 mEq/L (2×) and 113 mEq/L and 112 mEq/L and 116 mEq/L
SOD (sodium), After ([4]; individual dogs #1-#6, reference range 141 to 147, 1 mg/kg): 144 mEq/L and 146 mEq/L (2×) and 147 mEq/L (2×) and 148 H mEq/L
Uptake of fluorocoxib D in HNC during rhinoscopy [5]: uptake was detected
Uptake of fluorocoxib D in HNC during rhinoscopy ([5]; listed as fluorocoxib D): Specific uptake of fluorocoxib D was detected
Tumor-to-normal tissue ratio (T/N ratio) of fluorocoxib D signal ([5]; 1 mg/kg i.v., canine HNC, ImageJ, normal n=804 and tumor ROI n=866): 3.7±0.9
